# Measured values as given in patent US9643933B2, “Compounds useful as antibiotic tolerance inhibitors” (priority 2013, dated 2017).
# Test system: Pyocyanin
# Experiment: Pyocyanin Inhibition Assay
# Type: cell-based, P. aeruginosa, strain PA14
# Settings: Pseudomonas aeruginosa, PA14, 24 h, read-out: Pyocyanin Inhibition No. IC50 (μM)
# Experimental: Test compounds are dissolved in DMSO at 10 mM and stored at −20° C. until needed. Seven test concentrations from 0.0032 micromolar to 31.6 micromolar are used for each compound.
# P. aeruginosa, strain PA14, is inoculated into 5 mL of LB broth in a 15-mL sterile glass culture tube and incubated overnight at 37° C. under shaking (˜240 rpm). The overnight culture is then diluted in LB Broth to give an OD600=0.04 (T0 culture). Colony Forming Units (CFU)/mL of the overnight culture and T0 culture are determined by a series of 1:10 serial dilutions in sterile saline. 4×20 μL of each dilution is seeded on LB agar plates and incubated at 35±2° C. for 20 hours. CFU/mL is determined from the dilution that gives 2 to 50 colonies/20 μL.
# For concentration response curve (CRC) experiments, internal standard, 2-((5-nitro-1H-indol-2-yl)thio)-N-(4-phenoxyphenyl)acetamide, a compound previously identified as an MvfR inhibitor (see Example 1 of US 2014-0066454 (WO 2012/116010)), and test compounds are serially diluted in DMSO to 200 times each final concentration (0.5% DMSO fmal), and 1 μL/well is dispensed in duplicate into 2 mL wells of a 96-well deep well plate. 200 μL/well of T0 culture are added to each internal standard/test compound well. Wells containing only T0 culture (200 200 μL/well) are used to determine pyocyanin control level and wells containing only LB broth (blank wells) are also included in the plate.
# The plate is sealed and incubated at 37° C. under shaking (˜700 rpm) using a microtiter shaker for 24 hours. At the end of the incubation period, the plate is centrifuged at 4,000 g for 40 minutes at room temperature, 100 μL/well of the supernatant is transferred to a 96-microtiter PS flat-bottom plate, and absorbance at 690 nm is determined using SPECTROstar® Nano microplate reader. Pyocyanin concentration (M) is determined using the equation C=A690/(ε×d), where ε is the Pyocyanin extinction coefficient, at A690 nm ε is 4,310 M^−1 cm^−1 and d is the experimentally derived pathlength. The level of pyocyanin in the presence of test compound is expressed as percentage of inhibition with respect to the control. Curve fitting and IC50 determination were carried out using a four-parameter logistic model using GraphPad Prism v.5.
row,Compound,IC50
1,O=C(CSc1nc2cccnc2[nH]1)Nc1ccc(Cl)cc1 [Compound 101],> 10 µM
2,"O=C(C[C@H](O)c1nc2ccc(Cl)cc2[nH]1)Nc1ccc(Oc2cccnc2)cc1 [Compound 172, (S)-3-(6-chloro-1H-benzo[d]imidazol-2-yl)-3-hydroxy-N-(4-(pyridin-3-yloxy)phenyl)propanamide]",1 to 10 µM
3,"COc1cc(Oc2cccnc2)ccc1NC(=O)CSc1nc2cc(C#N)ccc2[nH]1 [Compound 169, 2-((5-Cyano-1H-benzo[d]imidazol-2-yl)thio)-N-(2-methoxy-4-(pyridin-3-yloxy)phenyl)acetamide]",0.1 to 1 µM
4,"COc1cc(Cl)cc2nc(SCC(=O)Nc3ccc(Cl)cc3)[nH]c12 [Compound 166, 2-((5-Chloro-7-methoxy-1H-benzo[d]imidazol-2-yl)thio)-N-(4-chlorophenyl)acetamide]",0.1 to 1 µM
5,N#Cc1ccc(NC(=O)CSc2nc3ccc(-c4ncco4)cc3[nH]2)cc1 [Compound 128],> 10 µM
6,CC(=O)Nc1cccc(NC(=O)CSc2nc3cc(C)ccc3[nH]2)c1 [Compound 123],> 10 µM
7,Cc1cccc(NC(=O)CSc2nc3cccnc3[nH]2)c1 [Compound 121],> 10 µM
8,"COc1cc(Oc2cccnc2)ccc1NC(=O)CSc1nc2cc(Cl)ccc2[nH]1 [Compound 161, 2-((5-chloro-1H-benzo[d]imidazol-2-yl)thio)-N-(2-methoxy-4-(pyridin-3-yloxy)phenyl)acetamide]",< 0.1 µM
9,"Cc1cc(Oc2cccnc2)ccc1NC(=O)CSc1nc2cc(Cl)ccc2[nH]1 [Compound 163, 2-((5-Chloro-1H-benzo[d]imidazol-2-yl)thio)-N-(2-methyl-4-(pyridin-3-yloxy)phenyl)acetamide]",0.1 to 1 µM
10,N#Cc1ccc(NC(=O)CSc2nc3cc(S(N)(=O)=O)ccc3[nH]2)cc1 [Compound 108],> 10 µM
11,O=C(CSc1nc2ccc(-c3ncccn3)cc2[nH]1)Nc1ccc(Cl)cc1 [Compound 114],> 10 µM
12,"COc1cc(Cl)cc2nc(SCC(=O)Nc3ccc(Oc4cccnc4)cc3)[nH]c12 [Compound 164, 2-((5-chloro-7-methoxy-1H-benzo[d]imidazol-2-yl)thio)-N-(4-(pyridin-3-yloxy)phenyl)acetamide]",< 0.1 µM
13,"O=C(CSc1nc2cc(Cl)ccc2[nH]1)Nc1ccc(Oc2cccnc2)cc1Cl [Compound 165, 2-((5-Chloro-1H-benzo[d]imidazol-2-yl)thio)-N-(2-chloro-4-(pyridin-3-yloxy)phenyl)acetamide]",< 0.1 µM
14,O=C(CSc1nc2ccncc2[nH]1)Nc1ccccc1F [Compound 132],> 10 µM
15,O=C(CSc1nc2ccc(-c3ncco3)cc2[nH]1)Nc1ccc(Cl)cc1 [Compound 127],> 10 µM
16,N#Cc1ccc(NC(=O)CSc2nc3ncccc3[nH]2)cc1 [Compound 103],> 10 µM
17,CN(C)C(=O)c1ccc2[nH]c(SCC(=O)Nc3ccc(C#N)cc3)nc2c1 [Compound 119],> 10 µM
18,O=C(CSc1nc2cc(C(=O)O)ccc2[nH]1)Nc1ccc(Cl)cc1 [Compound 97],> 10 µM
19,COC(=O)c1ccc2[nH]c(SCC(=O)Nc3ccc(Cl)cc3)nc2c1 [Compound 109],> 10 µM
20,CS(=O)(=O)c1ccc2[nH]c(SCC(=O)Nc3ccc(Cl)cc3)nc2c1 [Compound 98],> 10 µM

row,Compound,IC50
1,O=C(CSc1nc2cc(O)ccc2[nH]1)Nc1ccc(Cl)cc1 [Compound 131],> 10 µM
2,Cc1ccc(NC(=O)C(C)Sc2nc3ccc(Cl)cc3[nH]2)cc1 (stereo not drawn) [Compound 120],> 10 µM
3,"N#Cc1ccc2[nH]c(SCC(=O)Nc3ccc(Cl)cc3Cl)nc2c1 [Compound 167, 2-((5-Cyano-1H-benzo[d]imidazol-2-yl)thio)-N-(2,4-dichlorophenyl)acetamide]",0.1 to 1 µM
4,CS(=O)(=O)c1ccc2[nH]c(SCC(=O)Nc3ccc(C#N)cc3)nc2c1 [Compound 107],> 10 µM
5,N#Cc1ccc(NC(=O)CSc2nc3cc(O)ccc3[nH]2)cc1 [Compound 130],> 10 µM
6,CNC(=O)c1ccc2[nH]c(SCC(=O)Nc3ccc(C#N)cc3)nc2c1 [Compound 129],> 10 µM
7,O=C(CSc1nc2ccncc2[nH]1)Nc1ccc(Cl)cc1 [Compound 100],> 10 µM
8,CC(=O)c1ccc(NC(=O)CSc2nc3ccc(C)cc3[nH]2)cc1 [Compound 124],> 10 µM
9,CNC(=O)c1ccc2[nH]c(SCC(=O)Nc3ccc(Cl)cc3)nc2c1 [Compound 115],> 10 µM
10,N#Cc1ccc(NC(=O)CSc2nc3cnccc3[nH]2)cc1 [Compound 102],> 10 µM
11,Cc1ccc(NC(=O)CSc2nc3cccnc3[nH]2)cc1 [Compound 133],> 10 µM
12,O=C(CSc1nc2cccnc2[nH]1)Nc1ccccc1 [Compound 122],> 10 µM
13,"N#Cc1ccc2[nH]c(SCC(=O)Nc3ccc(Oc4cccnc4)cc3Cl)nc2c1 [Compound 170, N-(2-chloro-4-(pyridin-3-yloxy)phenyl)-2-((5-cyano-1H-benzo[d]imidazol-2-yl)thio)acetamide]",< 0.1 µM
14,"Cc1cc(Oc2cccnc2)ccc1NC(=O)CSc1nc2cc(C#N)ccc2[nH]1 [Compound 168, 2-((5-Cyano-1H-benzo[d]imidazol-2-yl)thio)-N-(2-methyl-4-(pyridin-3-yloxy)phenyl)acetamide]",0.1 to 1 µM
15,"Cc1cc(Cl)ccc1NC(=O)CSc1nc2cc(C#N)ccc2[nH]1 [Compound 160, N-(4-chloro-2-methylphenyl)-2-((5-cyano-1H-benzo[d]imidazol-2-yl)thio)acetamide]",1 to 10 µM
16,CN(C)C(=O)c1ccc2[nH]c(SCC(=O)Nc3ccc(Cl)cc3)nc2c1 [Compound 118],> 10 µM
17,"CC(C)(O)c1cc(Cl)cc2nc(SCC(=O)Nc3ccc(Oc4cccnc4)cc3)[nH]c12 [Compound 171, 2-((5-chloro-7-(2-hydroxypropan-2-yl)-1H-benzo[d]imidazol-2-yl)thio)-N-(4-(pyridin-3-yloxy)phenyl)acetamide]",< 0.1 µM
18,NS(=O)(=O)c1ccc2[nH]c(SCC(=O)Nc3ccc(Cl)cc3)nc2c1 [Compound 99],> 10 µM
19,"O=C(CSc1nc2cc(Cl)ccc2[nH]1)Nc1ccc(Oc2cccnc2)cc1O [Compound 162, 2-((5-Chloro-1H-benzo[d]imidazol-2-yl)thio)-N-(2-hydroxy-4-(pyridin-3-yloxy)phenyl)acetamide]",< 0.1 µM
